Assay [1] relates to ex vivo Hemophilia A human blood. Put plainly: Ca+2ACT whole blood coagulation time test, Hemophilia A human blood. The note with it: for mean clotting time: Hemophilia A blood specimens. The class given is biochemical. An excerpt:
While there are standardized tests such as Activated Partial Thromboplastin Time (“aPTT”) and Partial Thromboplastin Time (“PPT”) that measure blood clotting times (i.e., coagulation times), none of these tests are amenable to testing a small molecule drug, mainly due to the fact that the clotting agents added in these tests completely overcome the effect of the drug. A Calcium +2 ion Activated Coagulation Time test (“Ca+2ACT test”) was developed for measuring coagulation times that is devoid of the activators, thereby allowing drug candidates to be tested and verify their effects. The results described below use whole blood clotting assay and measure the coagulation of blood (i.e., blood's ability to clot), specifically, how much time is required for the clotting.
In this study, calcium chloride (“CaCl2”), a standard coagulating compound, is used as a control to compare the efficacy of various test samples. DMA is used as vehicle for various test samples. In a first study, a freshly prepared 5 μl test sample in DMA is added to a 100 μl blood specimen and then incubated in incubation slot of KC1 Delta machine Correlated Stago-Startmax for 37° C. for 3 min. For the control sample, 50 μl of CaCl2 solution is added, and timer started, to a 100 μl blood specimen to provide a baseline against the test sample. A stop watch, and automated electronic machine display, is used to measure the coagulation time in connection with an electronic signal provided the testing machine. Fresh citrated blood specimen from six healthy volunteers and six hemophilia patients, with initial standard citrate concentration in the collected blood of 3.5%, and “in cuvette” calcium +2 activation (by addition of CaCl2 solution) was obtained.
In this study, the effect of drug is measured by coagulation time of blood using the Ca+2ACT test, in presence of variable concentration of the drug in the test sample. The efficacy tests used 5 microliter of 40 mg/mL solution added to 155 microliter final volume in the clotting cuvette, corresponding to […] of the clotting mixture. For the dose dependence studies, we examined three persons. The twelve concentrations range chosen is 5 microliter of 0.05 mg/mL to 40 mg/mL, the vehicle being zero point concentration. This corresponds to mimimum concentration in the study of 1.66 microgram/mL or 1.66 ppm of the drug, not withstanding Vehicle Control of zero. […] FIG. 45 illustrates coagulation time versus concentration for the candidate molecule 1 for blood specimens from a second patient. FIG. 46 illustrates coagulation time versus concentration for the candidate molecule 1 for blood specimens from a third patient.
As discussed above, the effect is measured by coagulation time of blood using the Ca+2ACT test, in presence of variable concentration of the drug. Initial efficacy tests used 5 microliters of 40 mg/mL solution added to 155 microliter final volume in the clotting cuvette, corresponding to 1.29 mg/1000 mg of the clotting mixture. More recent tests used 10E-2 to 10E-22 as concentration range with 1E-2 interval. Samples were tested no later than eight hours after collection, and preferably, no later than four hours after collection. Often times, with very low and zero concentrations of clotting agents, although the instrument recorded a clotting time, the samples were fluid and partially coagulated at best. However, good fit was obtained at 1E-18 and good statistical difference was obtained at 1E-16, with significant statistical p-values at 10E-8 and higher concentrations, a very good range for drug design. […] The dose dependence study was performed using NDA solvent, and water in case of Eloctate™.

The subject of a further assay is FVIII-deficient plasma. Description: Thrombin generation assay (TGA) in FVIII-deficient plasma. The class given is biochemical, human. The note with it: for thrombin generation ETP dependence on concentration: 0.01 mg/ml, 0.1 mg/ml, and 0.4 mg/ml in FVIII-deficient plasma. An excerpt: Thrombin generation is regarded as a significant indicator of the efficiency of blood clotting. Therefore, the thrombin generation assay (“TGA”) can be used as a proxy to estimate overall blood clotting efficiency of factor proteins and others agents from observing the clotting of plasma samples. The thrombin generation experiments were run using a microtiter plate fluorometer. Solvent systems consisting of a buffer, a fluorogenic substrate, and eight candidate compounds in inert solvents were added to pre-warmed citrated FVIII-deficient plasma along with tissue factor. The clotting reactions in the plasma-compound mixtures were initiated by adding calcium chloride solution to all the samples, and the fluorescence measurements recorded by the fluorimeter were compared against negative control (FVIII-deficient plasma without compounds or solvent system), vehicle control (FVIII-deficient plasma with solvent system only), and positive control (FVIII-deficient plasma mixed with regular plasma) reference measurements.
Each of the eight candidate compounds was tested via the TGA at three different concentrations.

The test system of the next assay is heparinized rabbit blood. Put plainly: Heparinized clotting test (in vitro). It is filed as biochemical. The note with it: heparinized blood. As for the experimental part: The purpose of this experiment was to deduce a potential mechanism of action for chalcones in decreasing blood clotting and bleeding time. First, rabbit blood (200 μL) was added to the anticoagulant drug heparin (1.25 IU) in Eppendorf Tubes®. […] In untreated blood that is still inside a human or an animal, heparan sulfate that is found on cellular surfaces plays an equivalent role to heparin by forming a heparan-antithrombin complex and activating antithrombin.

With `COc1ccc(C=CC(=O)c2c(O)cc(O)cc2O)cc1` [ISK-CH, Iso-Sakutanetin Chalcone], the mean clotting time in assay [1] (1×10^−7 mg/mL, vehicle control 200.87 seconds) turned out to be 116.4 s.
As to `O=C(C=Cc1ccc2c(c1)OCO2)c1ccccc1` [HF-2022a, 3-(1,3-Benzodioxol-5-yl)-1-phenyl-2-propen-1-one], in the assay with FVIII-deficient plasma, the “thrombin generation ETP dependence on concentration” value (“thrombin generation ETP dependence” for short) is “observed dose dependence”.
`COc1ccc(C=CC(=O)c2c(O)cc(OC)cc2OC)cc1` [HF-2021b, 1-(2-hydroxy-4,6-dimethoxyphenyl)-3-(4-methoxyphenyl)prop-2-en-1-one]: the “thrombin generation ETP dependence” value in the assay on FVIII-deficient plasma is given as “observed dose dependence”. Further, the “activity in the heparinized blood assay” value with heparinized rabbit blood is given as “active blood clotting agent”.
As to `O=C(/C=C/c1ccc(O)cc1)c1c(O)cc(O)cc1O` [HF-2021g, (E)-3-(4-hydroxyphenyl)-1-(2,4,6-trihydroxyphenyl)prop-2-en-1-one], the “thrombin generation ETP dependence” value in the assay on FVIII-deficient plasma is recorded as “observed dose dependence”.
Still for that read-out and setting: with `O=C(/C=C/c1ccc(O)cc1)c1ccc(O)cc1O` [HF-2021c, (E)-1-(2,4-dihydroxyphenyl)-3-(4-hydroxyphenyl)prop-2-en-1-one] the entry was “observed dose dependence”; with `COc1ccc(/C=C/C(=O)c2c(O)cc(O[C@@H]3O[C@H](CO[C@@H]4O[C@@H](C)[C@H](O)[C@@H](O)[C@H]4O)[C@@H](O)[C@H](O)[C@H]3O)cc2OC)cc1O` [HF-2021d, (E)-3-(3-hydroxy-4-methoxyphenyl)-1-[2-hydroxy-6-methoxy-4-[(2S,3R,4S,5S,6R)-3,4,5-trihydroxy-6-[[(2R,3R,4R,5R,6S) -3,4,5-trihydroxy-6-methyloxan-2-yl]oxymethyl]oxan-2-yl]oxyphenyl]prop-2-en-1-one], “observed dose dependence”.
As to `CC(C)=CCOc1ccc(/C=C/C(=O)c2ccc(OCC=C(C)C)cc2OCC(=O)O)cc1` [HF-2021e, 2-[5-(3-methylbut-2-enoxy)-2-[(E)-3-[4-(3-methylbut-2-enoxy)phenyl]prop-2-enoyl]phenoxy]acetic acid], in the assay with FVIII-deficient plasma, the “thrombin generation ETP dependence” value was “observed dose dependence”. Also, the “thrombin concentration and ETP, combined dosing with HEMLIBRA” value in the assay on FVIII-deficient plasma (0.1 mg/mL combined with 25, 50, 75 μg/ml HEMLIBRA, versus each drug alone (FIG. 32, 33)) is “greater thrombin concentrations and ETPs than any individual dosage”; with FVIII-deficient plasma (0.1 mg/ml + 25 μg/ml HEMLIBRA versus 75 μg/ml HEMLIBRA alone) it was “slightly more thrombin concentration and ETP”. Moreover, in the assay with FVIII-deficient plasma (0.1 mg/ml + 25 μg/ml HEMLIBRA, roughly same thrombin generation as 75 μg/ml), the “possible cut of the required dose of HEMLIBRA on concurrent use” value is listed as 67%. Besides, in the assay on FVIII-deficient plasma (0.4 mg/ml versus lowest tested HEMLIBRA concentration 25 μg/ml (FIG. 30, 31)), the “effect on thrombin concentration and ETP compared with HEMLIBRA” value is reported as “slightly lower effect”. In assay [1] (0.1 mg/mL, vehicle control 247.61 seconds), this compound displayed a mean clotting time of 118.92 s. Moreover, in assay [1] (HF2021e in NDA, Eloctate in water (FIG. 43)), the “coagulation times compared with Eloctate” value was “higher than the coagulation times for Eloctate™”. In addition, the “EC50 compared with Eloctate” value in assay [1] (concentration for 50% of the total effect on coagulation time (FIG. 43)) is on record as “lower than for Eloctate™”. Besides, the “coagulation time dependence on dose” value in assay [1] (dose dependence study in NDA solvent (FIG. 43)) is “linear coagulation time dependence”.
Consider “4-methoxyphenyl-3-(2,4-dimethoxyphenyl)-1-oxo-2-propene [HF-2021f]”, for which the “thrombin generation ETP dependence” value in the assay with FVIII-deficient plasma was “observed dose dependence”.

Values taken from patent US20250090565A1, “Compositions and Methods for Treating Bleeding and Bleeding Disorders” (YewSavin, Inc., priority 2021, published 2025).
